Where “and” joins values, the source holds several entries; their conditions need not be identical. Identical values can stand only once. Like-named read-outs stand apart in the source and are kept apart here.
Experiments:
ELIC S202A = target: T1, ELIC S202A (Dickeya chrysanthemi, UniProt P0C7B7, S201A); assay type: biochemical, Erwinia chrysanthemi; conditions: 25 mol% outer leaflet POPG, 10 mM propylamine
T1 construct: host or cells: OverExpress C43 (DE3) E. coli
Protocol: (§1) The mutations were tested as for WT by examining the effect of 25 mol% outer leaflet POPG in paired (no exchange versus exchange) samples (Supplementary Fig. 15).
(§2) The fluorescence sequential-mixing stopped-flow liposomal flux measurements were carried using an SX20 stopped-flow spectrofluorometer (Applied Photophysics) and Pro-Data SX software[13],[30]. 7.5 mg of the respective lipid mixture (POPC, 1:1 POPC: POPE, 1:1 POPC:POPG, 3:1 POPC:POPE, 3:1 POPC:POPG, 2:1:1 POPC:POPE:POPG) was dried in a glass vial to a thin film under a constant stream of N2. The lipids were then further dried under vacuum in a desiccator overnight. The following day the lipids were hydrated in 500 µl of reconstitution buffer (100 mM NaNO3, 10 mM HEPES, pH 7) (Buffer R), 250 µl of 75 mM 8-Aminonaphthalene-1,3,6-Trisulfonic Acid (ANTS, ThermoFisher Scientific) in buffer R, and doped with ~18 mg of CHAPS (Anatrace). The mixture was vortexed and then sonicated with heat until completely solubilized. Following the sonication, the solution was brought to RT then 3.5 µl of 6.7 mg/ml ELIC in Buffer A with 0.02% DDM was added (3 µg per mg of lipid). This combined solution was incubated at RT for 30 min, followed by the addition of 1 ml of 1:1 v/v SM-2 BioBeads in Buffer R and an additional 250 µl of 75 mM ANTS in Buffer R. This mixture was incubated at RT for 2.5 hr with gentle mixing. The liposome suspension was then extruded with an Avanti mini-extruder and 0.1 µm membrane (30×). The extruded liposomes were stored at 13 °C overnight with gentle rotation. The next day, the liposomes were diluted to 2.5 mL using assay buffer (140 mM NaNO3, 10 mM HEPES, pH 7) (Stopped-flow Buffer A), loaded into a PD-10 desalting column (Cytiva), eluted with 3 mL of Stopped-flow Buffer A and subsequently diluted 5-fold with Stopped-flow Buffer A.
(§3) Using propylamine as the agonist, the assay and analysis was carried out as previously described[13],[30].

ELIC Q264L = target: T2, ELIC Q264L (Dickeya chrysanthemi, UniProt P0C7B7, Q263L); assay type: biochemical, Erwinia chrysanthemi; conditions: 25 mol% outer leaflet POPG, 10 mM propylamine
T2 construct: host or cells: OverExpress C43 (DE3) E. coli
Protocol: as §1, §2, §3

ELIC W206F = target: T3, ELIC W206F (Dickeya chrysanthemi, UniProt P0C7B7, W205F); assay type: biochemical, Erwinia chrysanthemi; conditions: 25 mol% outer leaflet POPG, 10 mM propylamine
T3 construct: host or cells: OverExpress C43 (DE3) E. coli
Protocol: as §1, §2, §3

ELIC T259A = target: T4, ELIC T259A (Dickeya chrysanthemi, UniProt P0C7B7, T258A/T259A); assay type: biochemical, Erwinia chrysanthemi; conditions: 25 mol% outer leaflet POPG, 10 mM propylamine
T4 construct: host or cells: OverExpress C43 (DE3) E. coli
Protocol: as §1, §2, §3

ELIC R318A = target: T5, ELIC R318A (Dickeya chrysanthemi, UniProt P0C7B7, R317A); assay type: biochemical, Erwinia chrysanthemi; conditions: 25 mol% outer leaflet POPG, 10 mM propylamine
T5 construct: host or cells: OverExpress C43 (DE3) E. coli
Protocol: as §1, §2, §3

WT ELIC [1] = conditions: without BaCl2; cited from earlier work
WT ELIC [2] = assay: Giant liposome excised patch-clamp recordings (2:1:1 POPC:POPE:POPG); assay type: biochemical, Erwinia chrysanthemi
Protocol: (§4) Giant liposome formation and excised patch-clamp recordings of ELIC were performed as previously described[12],[13]. 0.5 mg of WT ELIC, ELIC3 or ELIC5 were reconstituted in 5 mg of 2:1:1 POPC:POPE:POPG liposomes, using DDM destabilization and biobeads. 10 mM MOPS pH 7 and 150 mM NaCl (MOPS buffer) was used throughout. Proteoliposomes were pelleted and resuspended in ~80 µl, and frozen in 10 µl aliquots. Giant liposomes were formed by dehydrating 10 µl of proteoliposomes on a glass coverslip in a vacuum desiccator for ~20 min followed by rehydration with 100 µl of MOPS buffer overnight at 4 °C and 2 hr at RT the following day. The giant liposomes were resuspended by pipetting and applied to a recording chamber. The liposomes were allowed to settle for 15 min, after which free liposomes and debris were removed by exchanging the bath solution. Bath and pipette solutions contained MOPS buffer and 0.5 mM BaCl2 (Sigma). […] Rapid application or washout of agonist were performed using a three-barreled flowpipe mounted to and controlled by a SF-77B fast perfusion system (Warner Instrument Corporation). […] Deactivation time courses were fit with a single exponential while the time course of desensitization was fit with a double exponential. Weighted time constants were calculated using Eq. 1:1 Weighted Tau=A1×τ1+(A2×τ2)/A1+A2 where A1 and A2 are the amplitudes of the first and second exponential components. The data were collected and analyzed using pClamp10.4 software.

[3] = target: T6, ELIC5 (P254G/C300S/V261Y/G319F/I320F) (Dickeya chrysanthemi, UniProt P0C7B7, C299S/G318F/I319F/P253G/V260Y); assay: as above; assay type: biochemical, Erwinia chrysanthemi
T6 construct: host or cells: OverExpress C43 (DE3) E. coli
Protocol: as §4

[4] = target: T7, ELIC3 (V261Y/G319F/I320F) (Dickeya chrysanthemi, UniProt P0C7B7, G318F/I319F/V260Y); assay: as above; assay type: biochemical, Erwinia chrysanthemi
T7 construct: host or cells: OverExpress C43 (DE3) E. coli
Protocol: as §4

[5] = 2:1:1 giant liposomes, 0.5 mM BaCl2, Hill n set to 2, read-out: EC50 of peak current dose response

T6 sequence (P0C7B7 whole entry P253G/V260Y/C299S/G318F/I319F): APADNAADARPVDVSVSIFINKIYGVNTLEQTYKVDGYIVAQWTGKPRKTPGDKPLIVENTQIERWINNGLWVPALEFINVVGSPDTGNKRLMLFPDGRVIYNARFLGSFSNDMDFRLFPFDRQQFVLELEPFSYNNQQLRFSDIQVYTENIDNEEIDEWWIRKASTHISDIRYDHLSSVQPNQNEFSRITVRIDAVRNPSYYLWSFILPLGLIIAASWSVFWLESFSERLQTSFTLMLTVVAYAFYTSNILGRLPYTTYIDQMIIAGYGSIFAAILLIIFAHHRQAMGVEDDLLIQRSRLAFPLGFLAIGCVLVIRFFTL
T7 sequence (P0C7B7 whole entry V260Y/G318F/I319F): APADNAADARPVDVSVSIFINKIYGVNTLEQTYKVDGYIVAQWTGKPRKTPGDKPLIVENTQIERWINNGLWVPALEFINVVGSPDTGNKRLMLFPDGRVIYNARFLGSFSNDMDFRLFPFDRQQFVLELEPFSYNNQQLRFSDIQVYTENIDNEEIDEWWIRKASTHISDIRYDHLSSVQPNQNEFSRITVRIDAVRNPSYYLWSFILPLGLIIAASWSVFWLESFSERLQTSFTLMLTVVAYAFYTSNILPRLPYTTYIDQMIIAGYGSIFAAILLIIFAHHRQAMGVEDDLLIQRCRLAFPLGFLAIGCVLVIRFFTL
T2 sequence (P0C7B7 whole entry Q263L): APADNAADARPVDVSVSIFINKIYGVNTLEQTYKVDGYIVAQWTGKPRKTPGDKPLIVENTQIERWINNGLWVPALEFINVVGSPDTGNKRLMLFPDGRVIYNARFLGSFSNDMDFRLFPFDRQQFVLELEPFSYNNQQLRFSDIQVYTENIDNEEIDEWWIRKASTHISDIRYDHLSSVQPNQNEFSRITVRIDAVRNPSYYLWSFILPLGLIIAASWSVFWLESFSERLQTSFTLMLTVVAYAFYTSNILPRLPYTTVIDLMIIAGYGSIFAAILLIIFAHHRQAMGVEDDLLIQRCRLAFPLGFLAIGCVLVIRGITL
T4 sequence (P0C7B7 whole entry T258A/T259A): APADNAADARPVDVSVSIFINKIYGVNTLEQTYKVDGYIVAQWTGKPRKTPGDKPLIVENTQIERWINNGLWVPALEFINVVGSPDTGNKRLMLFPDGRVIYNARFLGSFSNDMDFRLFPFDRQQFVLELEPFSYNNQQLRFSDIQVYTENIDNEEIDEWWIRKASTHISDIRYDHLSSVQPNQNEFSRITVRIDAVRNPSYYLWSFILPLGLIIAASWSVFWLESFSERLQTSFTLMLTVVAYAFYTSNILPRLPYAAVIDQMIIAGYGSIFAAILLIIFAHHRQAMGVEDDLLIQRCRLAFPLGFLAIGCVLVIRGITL
T1 sequence (P0C7B7 whole entry S201A): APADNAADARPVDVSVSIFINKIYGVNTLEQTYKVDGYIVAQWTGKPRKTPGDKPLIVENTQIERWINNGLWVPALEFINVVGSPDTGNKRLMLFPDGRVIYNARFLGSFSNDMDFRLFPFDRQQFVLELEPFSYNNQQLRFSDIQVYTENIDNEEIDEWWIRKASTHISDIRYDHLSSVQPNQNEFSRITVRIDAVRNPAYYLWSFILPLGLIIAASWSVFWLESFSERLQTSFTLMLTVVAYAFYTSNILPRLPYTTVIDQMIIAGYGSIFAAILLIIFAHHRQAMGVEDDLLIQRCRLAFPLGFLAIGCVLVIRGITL
T3 sequence (P0C7B7 whole entry W205F): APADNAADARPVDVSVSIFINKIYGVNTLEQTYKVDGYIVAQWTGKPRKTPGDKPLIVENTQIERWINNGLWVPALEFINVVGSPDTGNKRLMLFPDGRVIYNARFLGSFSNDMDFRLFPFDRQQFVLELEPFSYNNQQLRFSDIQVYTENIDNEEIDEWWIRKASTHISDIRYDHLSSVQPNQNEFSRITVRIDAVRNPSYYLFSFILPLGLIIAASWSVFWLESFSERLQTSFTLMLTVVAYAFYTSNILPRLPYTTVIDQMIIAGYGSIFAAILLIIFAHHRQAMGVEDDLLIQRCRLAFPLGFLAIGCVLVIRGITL
T5 sequence (P0C7B7 whole entry R317A): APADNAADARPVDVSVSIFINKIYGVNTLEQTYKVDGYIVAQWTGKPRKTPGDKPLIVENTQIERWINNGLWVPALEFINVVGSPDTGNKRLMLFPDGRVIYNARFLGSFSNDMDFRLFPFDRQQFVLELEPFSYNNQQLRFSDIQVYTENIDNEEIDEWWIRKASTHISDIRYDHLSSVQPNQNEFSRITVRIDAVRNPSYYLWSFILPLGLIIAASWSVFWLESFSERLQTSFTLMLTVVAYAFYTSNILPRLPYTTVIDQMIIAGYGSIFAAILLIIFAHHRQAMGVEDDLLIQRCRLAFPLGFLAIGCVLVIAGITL

With `CCCCCCCC/C=C\CCCCCCCC(=O)OC(COC(=O)CCCCCCCCCCCCCCC)COP(=O)(O)OCC(O)CO` (stereo not drawn) [POPG, 1-palmitoyl-2-oleoyl-phosphatidylglycerol] the “POPG modulation (peak response and desensitization)” value (shortened to “POPG modulation”) (ELIC S202A) was “both effects of POPG (increased peak response and decreased desensitization) are abolished”, the “POPG modulation” value (ELIC Q264L) was “POPG modulation is preserved” and the “increase in the measurable peak response” value (ELIC Q264L) was 2 ×. The “POPG modulation” value (ELIC W206F) was “POPG only decreases desensitization”, the “POPG modulation” value (ELIC T259A) was “POPG only decreases desensitization” and the “POPG modulation” value (ELIC R318A) was “POPG only decreases desensitization”.
For `NCCS` [cysteamine], the EC50 (WT ELIC [1]) is listed as 1000 to 2000 µM, the “Peak response (normalized)” value (WT ELIC [2]; 0.3 mM cysteamine) is listed as 0.003114 and the “Peak response (normalized)” value (WT ELIC [2]; 1 mM cysteamine) is listed as 0.01807. The “Peak response (normalized)” value (WT ELIC [2]; 3 mM cysteamine) was 0.2085, the “Relative current at 60s, Average” value (WT ELIC [2]; 10 mM Cys) was 0.05101 and the “Time constant of deactivation, Deactivation Tau” value (shortened to “Time constant of deactivation”) (WT ELIC [2]; 10 mM Cys) was 0.1636 s. The “Time constant of desensitizaton, Weighted Tau” value (“Time constant … Weighted Tau” for short) (WT ELIC [2]; 10 mM Cys) was 4.764 s, the “Peak response (normalized)” value (WT ELIC [2]; 10 mM cysteamine) was 0.7416 and the “Relative current at 60s, Average” value (WT ELIC [2]; 30 mM Cys) was 0.03561. The “Time constant of deactivation” value (WT ELIC [2]; 30 mM Cys) was 0.4008 s, the “Time constant … Weighted Tau” value (WT ELIC [2]; 30 mM Cys) was 2.506 s and the “Peak response (normalized)” value (WT ELIC [2]; 30 mM cysteamine) was 1. For the same compound, the EC50 (WT ELIC [2]; [5]) was 5200 µM and 4000 to 5000 µM, the “Relative current at 60s” value ([3]; 10 mM Cys) was “No evidence of desensitization” and the “Time constant of deactivation” value ([3]; 10 mM Cys) was 195.719 s. The “Time constant of desensitizaton” value ([3]; 10 mM Cys) was “No evidence of desensitization”, the “deactivation rate, fold slower than WT” value ([3]; after removal of 10 mM cysteamine) was ~ 1000 × and the desensitization ([3]; in the presence of 10 mM cysteamine) was “no evidence of desensitization”. For the same compound, the “Peak response (normalized)” value ([4]; 0.3 mM cysteamine) was 0.02035, the “Peak response (normalized)” value ([4]; 1 mM cysteamine) was 0.4462 and the “Peak response (normalized)” value ([4]; 3 mM cysteamine) was 0.7955. The “Relative current at 60s, Average” value ([4]; 10 mM Cys) was 0.1185, the “Time constant of deactivation” value ([4]; 10 mM Cys) was 1.081 s and the “Time constant … Weighted Tau” value ([4]; 10 mM Cys) was 12.8369 s. The “Peak response (normalized)” value ([4]; 10 mM cysteamine) was 1.022, the “Relative current at 60s, Average” value ([4]; 30 mM Cys) was 0.08245 and the “Time constant of deactivation” value ([4]; 30 mM Cys) was 1.658 s. For the same compound, the “Time constant … Weighted Tau” value ([4]; 30 mM Cys) was 8.1999 s, the “Peak response (normalized)” value ([4]; 30 mM cysteamine) was 1 and the EC50 [4, 5] was 1200 ± 200 µM.
